We go through 6 molecules from publication PMC6315362, “Cytotoxic Potential of the Novel Horseshoe Crab Peptide Polyphemusin III” (Marine Drugs, 2018).

Where a SMILES comes first, the peptide text is derived from it. Bridges are numbered along the chain shown (N, C = ends).

The subject of data set [1] is S. aureus ATCC 29213. As to the kind of experiment: Antimicrobial assay, broth microdilution MIC. It is filed as cell-based, Staphylococcus aureus. The note with it: S. aureus ATCC 29213, Gram +, MH medium with NaCl, 24 h 37 °C, median of three independent triplicated experiments. As for the experimental part:
(§1) Bacterial test cultures were grown in the Mueller-Hinton (MH) medium at 37 °C to mid-log phase and then diluted with the 2 x MH medium supplemented with 1.8% NaCl. 50 µL of the bacterial suspension with a final cell concentration of 10^6 CFU/mL were added to aliquots of 50 µL of the peptide solutions and serially diluted with sterilized 0.1% bovine serum albumin in 96-well flat-bottom polystyrene microplates (Eppendorf, Hamburg, Germany). Bacterial cells were incubated for 24 h at 37 °C and 900 rpm on the plate thermoshaker (Biosan, Riga, Latvia). The minimum inhibitory concentrations (MIC) were determined as the lowest peptide concentration that prevented growth of a test microorganism observed as visible turbidity. The results were expressed as median values of three independent triplicated experiments. Assessment of antimicrobial activities of the recombinant PM III, other polyphemusins, and tachyplesins was conducted against Gram-negative (Escherichia coli ML-35p, Klebsiella pneumoniae (clinical isolate, CI 287), Pseudomonas aeruginosa PAO1) and Gram-positive (Staphylococcus aureus ATCC 29213, Staphylococcus aureus 209P, Bacillus subtilis B-886, Micrococcus luteus B-1314) bacteria.
On the technique in general: Broth dilution looks for growth in wells or tubes with falling amounts of substance.

In data set [2] the test system is S. aureus 209P. The data set can be described thus: Antimicrobial assay, broth microdilution MIC. It is filed as cell-based, Staphylococcus aureus. The settings on record: Gram +, MH medium with NaCl, 24 h 37 °C, median of three independent triplicated experiments. How it is done: as §1
The test system of data set [3] is P. aeruginosa PAO1. The data set can be described thus: Antimicrobial assay, broth microdilution MIC. The format is cell-based, Pseudomonas aeruginosa. The settings on record: P. aeruginosa PAO1, Gram -, MH medium with NaCl, 24 h 37 °C, median of three independent triplicated experiments. As for the experimental part:
as §1

Data set [4] concerns M. luteus B-1314. As to the kind of experiment: Antimicrobial assay, broth microdilution MIC. The format is cell-based, Micrococcus luteus. The settings on record: M. luteus B-1314, Gram +, MH medium with NaCl, 24 h 37 °C, median of three independent triplicated experiments. As for the experimental part:
as §1

For data set [5], the system named is B. subtilis B-886. As to the kind of experiment: Antimicrobial assay, broth microdilution MIC. The note with it: B. subtilis B-886, Gram +, MH medium with NaCl, 24 h 37 °C, median of three independent triplicated experiments. The format is cell-based, Bacillus subtilis. As for the experimental part: as §1
Data set [6] concerns human red blood cells. As to the kind of experiment: Hemolytic activity assay. The format is cell-based. The note with it: for hemolysis at the maximal concentration: 100 µM peptide, human red blood cells 4% (v/v) in PBS pH 7.4, 1.5 h 37 °C, 0.1% Triton X-100 = 100%. How it is done: Testing of the hemolytic activity of polyphemusins and tachyplesins was performed using fresh human red blood cells (hBRC). Permeabilization of erythrocyte cytoplasmic membrane results in lysis followed by the release of hemoglobin. hBRC were washed three times with phosphate buffered saline (PBS: 10 mM Na2HPO4, 1.76 mM K2HPO4, pH 7.4, containing […], and 2.7 mM KCl). Two-fold serial dilutions of the peptide solutions were added to 50 μL aliquots of hRBC in the 96-well microplate. The final hBRC concentration was of 4% (v/v) in each well, and the final volume of suspension was 100 μL. After incubation of suspensions for 1.5 h at 37 °C under stirring at 1000 rpm, centrifugation of plates was done at 700 g for 5 min. The supernatant 50 μL aliquots were then transferred into flat-bottomed 96-well microplates. The absorbance at 405 nm was measured in a microplate reader (Eppendorf, Hamburg, Germany), allowing the detection of hemoglobin release. 0.1% Triton X-100 caused a complete lysis of erythrocytes, thus hBRC treated with Triton X-100 were used as a positive control. […] The percentage of hemolysis was calculated using the following Equation (1):Hemolysis (%) = (OD405 sample − OD405 0% lysis control)/(OD405 100% lysis control − OD405 0% lysis control) × 100%(1)
The quantitative data resulted from two series of experiments were represented as average means with standard deviations. The experiments were carried out using hBRC obtained from human blood samples of independent donors.

Data set [7] relates to E. coli ML-35p. As to the kind of experiment: Antimicrobial assay, broth microdilution MIC. The format is cell-based, Escherichia coli. The note with it: Gram -, MH medium with NaCl, peptide diluted in 0.1% BSA, 10^6 CFU/mL, 24 h 37 °C, median of three independent triplicated experiments. As for the experimental part:
as §1

Data set [8] concerns K. pneumoniae (CI 287). The data set can be described thus: Antimicrobial assay, broth microdilution MIC. It is filed as cell-based, Klebsiella pneumoniae. The note with it: Gram -, MH medium with NaCl, 24 h 37 °C, median of three independent triplicated experiments. How it is done: as §1

In the case of `CC(C)[C@@H]1NC(=O)[C@H](CCCNC(=N)N)NC(=O)[C@H](Cc2ccccc2)NC(=O)[C@@H](NC(=O)[C@H](Cc2c[nH]c3ccccc23)NC(=O)[C@H](CCCNC(=N)N)NC(=O)[C@@H](N)CCCNC(=N)N)CSSC[C@@H](C(=O)N[C@@H](CCCNC(=N)N)C(=O)O)NC(=O)[C@H](CCCCN)NC(=O)[C@H](CCCNC(=N)N)NC(=O)[C@H](Cc2ccc(O)cc2)NC(=O)[C@@H]2CSSC[C@H](NC1=O)C(=O)N[C@@H](Cc1ccc(O)cc1)C(=O)N[C@@H](CCCNC(=N)N)C(=O)NCC(=O)N[C@@H](Cc1ccccc1)C(=O)N2` [PM I, polyphemusin I] (H-RRWCFRVCYRGFCYRKCR-OH; disulfide 4-17, 8-13 (inferred); N-terminus assumed), the MICs in data set [1] was found to be 4 µM; in data set [2], 0.5 µM; in data set [3], 0.5 µM; in data set [4] it was 0.5 µM; in data set [5], 0.25 µM; in data set [7], 0.062 µM. The molecule also came in with an MICs in data set [8] of 0.5 µM. Further, the “hemolysis at the maximal concentration” value in data set [6] is given as ~ 45%.
`CC(C)[C@@H]1NC(=O)[C@H](CCCNC(=N)N)NC(=O)[C@H](Cc2ccccc2)NC(=O)[C@@H](NC(=O)[C@H](Cc2c[nH]c3ccccc23)NC(=O)[C@H](CCCNC(=N)N)NC(=O)[C@@H](N)CCCNC(=N)N)CSSC[C@@H](C(=O)N[C@@H](CCCNC(=N)N)C(=O)O)NC(=O)[C@H](CCCCN)NC(=O)[C@H](CCCNC(=N)N)NC(=O)[C@H](Cc2ccc(O)cc2)NC(=O)[C@@H]2CSSC[C@H](NC1=O)C(=O)N[C@@H](Cc1ccc(O)cc1)C(=O)N[C@@H](CCCCN)C(=O)NCC(=O)N[C@@H](Cc1ccccc1)C(=O)N2` [PM II, polyphemusin II] (H-RRWCFRVCYKGFCYRKCR-OH; disulfide 4-17, 8-13 (inferred); N-terminus assumed): the MICs in data set [1] was 4 µM; in data set [2], 0.5 µM; in data set [3], 0.5 µM; in data set [4] it was 1 µM; in data set [5], 0.5 µM; in data set [7] it was 0.031 µM. Also, the MICs in data set [8] came out at 0.5 µM. Moreover, the “hemolysis at the maximal concentration” value in data set [6] is reported as ~ 30%.
In the case of `CC(C)[C@@H]1NC(=O)[C@H](CCCNC(=N)N)NC(=O)[C@H](Cc2ccccc2)NC(=O)[C@@H](NC(=O)CNC(=O)[C@H](CCCNC(=N)N)NC(=O)[C@@H](N)CCCNC(=N)N)CSSC[C@@H](C(=O)N[C@@H](CCCNC(=N)N)C(=O)O)NC(=O)[C@H](CCCNC(=N)N)NC(=O)[C@H](CCC(N)=O)NC(=O)[C@H](Cc2ccccc2)NC(=O)[C@@H]2CSSC[C@H](NC1=O)C(=O)N[C@@H](Cc1ccc(O)cc1)C(=O)N[C@@H](CCCNC(=N)N)C(=O)NCC(=O)N[C@@H](Cc1ccccc1)C(=O)N2` [PM III, polyphemusin III] (H-RRGCFRVCYRGFCFQRCR-OH; disulfide 4-17, 8-13 (inferred); N-terminus assumed), the MICs in data set [1] worked out at 16 µM; in data set [2] it was 2 µM; in data set [3], 0.5 µM; in data set [4], 0.5 µM; in data set [5], 0.5 µM; in data set [7], 0.25 µM. The MICs in data set [8] was determined as 2 µM. Further, in data set [6] (HC50 / IC50 (HL-60)), the “HC50 relative to IC50 measured for the HL-60 cell line” value came out at 18 fold. Moreover, the “half-hemolysis concentration (HC50)” value in data set [6] (fresh human red blood cells 4% (v/v) in PBS pH 7.4, 1.5 h 37 °C, absorbance 405 nm, two independent series of triplicated experiments) turned out to be 46 µM.
With `CC[C@H](C)[C@@H]1NC(=O)CNC(=O)[C@H](CCCNC(=N)N)NC(=O)[C@H](Cc2ccc(O)cc2)NC(=O)[C@@H]2CSSC[C@H](NC1=O)C(=O)N[C@@H](Cc1ccc(O)cc1)C(=O)N[C@@H](CCCNC(=N)N)C(=O)N[C@@H](CCCNC(=N)N)C(=O)N[C@H](C(=O)N[C@@H](CCCNC(=N)N)C(=O)O)CSSC[C@H](NC(=O)[C@H](Cc1c[nH]c3ccccc13)NC(=O)[C@@H](N)CCCCN)C(=O)N[C@@H](Cc1ccccc1)C(=O)N[C@@H](CCCNC(=N)N)C(=O)N[C@@H](C(C)C)C(=O)N2` [TP I, tachyplesin I] (H-KWCFRVCYRGICYRRCR-OH; disulfide 3-16, 7-12 (inferred); N-terminus assumed), the MICs amounted to 8 µM in data set [1]; 0.5 µM in data set [2]; 0.5 µM in data set [3]; 1 µM in data set [4]; 0.5 µM in data set [5]; 0.062 µM in data set [7]. In addition, in data set [8], the MICs stood at 0.5 µM. Moreover, the “hemolysis at the maximal concentration” value in data set [6] is listed as 38%.
Take `CC[C@H](C)[C@@H]1NC(=O)CNC(=O)[C@H](CCCNC(=N)N)NC(=O)[C@H](Cc2ccc(O)cc2)NC(=O)[C@@H]2CSSC[C@H](NC1=O)C(=O)N[C@@H](Cc1ccc(O)cc1)C(=O)N[C@@H](CCCNC(=N)N)C(=O)N[C@@H](CCCCN)C(=O)N[C@H](C(=O)N[C@@H](CCCNC(=N)N)C(=O)O)CSSC[C@H](NC(=O)[C@H](Cc1c[nH]c3ccccc13)NC(=O)[C@@H](N)CCCNC(=N)N)C(=O)N[C@@H](Cc1ccccc1)C(=O)N[C@@H](CCCNC(=N)N)C(=O)N[C@@H](C(C)C)C(=O)N2` [TP II, tachyplesin II] (H-RWCFRVCYRGICYRKCR-OH; disulfide 3-16, 7-12 (inferred); N-terminus assumed): the MICs in data set [1] is 8 µM; in data set [2] it was 0.5 µM; in data set [3], 0.5 µM; in data set [4] it was 1 µM; in data set [5], 0.5 µM; in data set [7], 0.062 µM. Further, the MICs in data set [8] stood at 1 µM. Besides, the “hemolysis at the maximal concentration” value in data set [6] was 33%.
For `CC[C@H](C)[C@@H]1NC(=O)CNC(=O)[C@H](CCCNC(=N)N)NC(=O)[C@H](Cc2ccc(O)cc2)NC(=O)[C@@H]2CSSC[C@H](NC1=O)C(=O)N[C@@H](Cc1ccc(O)cc1)C(=O)N[C@@H](CCCNC(=N)N)C(=O)N[C@@H](CCCCN)C(=O)N[C@H](C(=O)N[C@@H](CCCNC(=N)N)C(=O)O)CSSC[C@H](NC(=O)[C@H](Cc1c[nH]c3ccccc13)NC(=O)[C@@H](N)CCCCN)C(=O)N[C@@H](Cc1ccccc1)C(=O)N[C@@H](CCCNC(=N)N)C(=O)N[C@@H](C(C)C)C(=O)N2` [TP III, tachyplesin III] (H-KWCFRVCYRGICYRKCR-OH; disulfide 3-16, 7-12 (inferred); N-terminus assumed), the MICs was determined as 16 µM in data set [1]; 0.5 µM in data set [2]; 0.5 µM in data set [3]; 2 µM in data set [4]; 1 µM in data set [5]; 0.062 µM in data set [7]. This molecule came in with an MICs in data set [8] of 0.5 µM. Further, in data set [6], the “hemolysis at the maximal concentration” value is listed as 20%.
